We go through 10 molecules from US20030044872A1, “Means of stabilizing compositions and reagents” (priority 1999, published 2003).

A short description of series [1]: Stabilizing effect of 1:1 mixtures of NEM with other inhibitors, procedures of Examples 5 to 8 (Example 9). The class given is physicochemical, bovine. An excerpt:
The procedures stated in the Examples 5 to 8 were repeatedly carried out using the mixtures of NEM with monochloroamide, acrylamide, glycinamide, and dithioprydine, as an inhibiting agent, in an amount of 1:1, as other representative examples.

Series [2] is described as follows: Insoluble precipitation after storage of absorbed plasma mixture with various substances (Example 4). Further: key: +: Yes; −: No. Type of series: physicochemical, bovine. The note with it: storage 24 hours at 10° C. The protocol: (§1) To 100 ml of bovine plasma, barium sulfate in 20 w/v % was added. The mixture was mixed for 30 minutes at room temperature, and stirred slowly. Subsequently, the mixture was centrifuged at 5,000×g to remove the barium sulfate precipitate, and absorbed plasma was prepared by adding in the supernatant, and was mixed with 1 ml of N-ethylmaleimide, as inhibitor for Factor XIII. In other words, the composition prepared, contained at least Factor V and fibrinogen. Beside these, the absorbed plasma, without containing 1 mL of N-ethylmaleimide, was prepared and used, as a control.
(§2) Separately, one volume of the absorbed plasma and one volume of 20 mM Hepes-Tris buffer solution (pH 7.0), in which 10 mM of calcium lactate was added, were mixed together to prepare the solution. To the solution, each of substance, stated in Table 1 as below, was added so that mixture might show such a concentration as mentioned in the Table 1. With these mixtures, the inhibiting rate for factor XIII, and a producing rate of the insoluble matter after storage for 24 hours at 10° C. were measured.

In the next series the test system is factor XIII. The series can be described thus: Inhibiting for factor XIII in absorbed plasma/calcium lactate buffer mixture (Example 4). Further: key: +: Yes; −: No. The class given is biochemical, bovine. The protocol: as §1, §2
Series [3] concerns commercially available control plasma. The series can be described thus: Reagent performance: coagulation activity / clotting time of control plasma on blood coagulation analyzer Coagre (Example 8). The note with it: reagent with NEM added. Type of series: biochemical. The protocol:
In order to confirm the performance of each reagent, prepared in the Example 8, the performance was evaluated using Blood coagulation analyzer, Coagre (manufactured by Shimazu, Co., Japan) by measuring clotting time with commercially available control plasma. The performance and stability of the reagent evaluated by using the reagents, prepared and preserved for several days at 10° C., to obtain plasma coagulation activity of control plasma. As clearly seen in the Table 5, clotting time was not varied even adding NEM.

Series [4] in a line: Influence of N-ethylmaleimide concentration on insoluble precipitation, visually detected (Example 5). The class given is physicochemical, bovine. More on the design: key: +: Insoluble Precipitation; ±: Slightly insoluble precipitation; −: No insoluble precipitate. On the procedure: To 100 ml of bovine plasma, barium sulfate in 20 w/v % was added. The mixture was mixed for 30 minutes at room temperature, and stirred slowly. Subsequently, the mixture was centrifuged at 5,000×g to remove the barium sulfate precipitate, and absorbed plasma was prepared by adding in the supernatant, and was mixed with 1 ml of N-ethylmaleimide, as inhibitor for Factor XIII. In other words, the composition prepared, contained at least Factor V and fibrinogen. Beside these, the absorbed plasma, without containing 1 mL of N-ethylmaleimide, was prepared and used, as a control. The absorbed plasma was prepared in the same manner as stated in the Example 2, except that a concentration of N-ethylmaleimide was varied. Separately, one volume of the absorbed plasma and one volume of 20 mM Hepes-Tris buffer solution (pH 7.0), in which 10 mM of calcium lactate was added, were mixed together to prepare the solution, for which a producing rate of the insoluble matter was visually detected both after storing 24 hours at 10° C., and right after freeze-thawed at −20° C. As clearly seen in the Table 2, it has been cleared that N-ethylmaleimide may inhibit insoluble precipitation even with adding 1 mM concentration, however, more preferably 1 mM to 10 mM.

Series [5] in a line: Insoluble precipitation in three adsorbed plasmas with N-ethylmaleimide (Example 6). The class given is physicochemical, bovine. Set-up: key: +: Insoluble precipitation; −: No insoluble precipitation. The note with it: NEM (+). On the procedure:
To 100 ml of bovine plasma, barium sulfate in 20 w/v % was added. The mixture was mixed for 30 minutes at room temperature, and stirred slowly. Subsequently, the mixture was centrifuged at 5,000×g to remove the barium sulfate precipitate, and absorbed plasma was prepared by adding in the supernatant, and was mixed with 1 ml of N-ethylmaleimide, as inhibitor for Factor XIII. In other words, the composition prepared, contained at least Factor V and fibrinogen. Beside these, the absorbed plasma, without containing 1 mL of N-ethylmaleimide, was prepared and used, as a control. To study the effect of the present invention, one volume of three types absorbed plasma, prepared in the Example 2 and one volume of 20 mM Hepes-Trisbuffersolution were mixed together, and visually detected both after storing 24 hours at 10° C., and right after freeze-thawed at […]. As clearly seen in the Table 3, none of the adsorbed plasma mixed with N-ethylmaleimide observed the insoluble precipitation, neither in storing at 10° C. or after freeze-thawed treatment. […] Thus, it has become clear that the insoluble precipitation can be inhibited by adding N-ethylmaleimide.

Where [6] appears, read: mixture of NEM with the inhibitor 1:1, procedures of Examples 5 to 8.
The mark [7] stands for this setting: substance 1 mM in absorbed plasma + Hepes-Tris/calcium lactate.

Like-named read-outs stand apart in the source and are kept apart here.

Consider `NCC(N)=O` [glycinamide], for which the “stabilizing effect compared with NEM” value in series [1] is listed as “equal or slightly inferior to NEM”.
For the molecule “Bovine serum albumin: Bovine serum albumin, comparison substance added at 1%”, the Precipitation result in series [2] (substance 1%) was “+”. In addition, the “Inhibiting for factor XIII” value with factor XIII (substance 1% in absorbed plasma + Hepes-Tris/calcium lactate) is “−”.
Take `C=CC(N)=O` [acrylamide]: the “stabilizing effect compared with NEM” value in series [1] (setting [6]) is “equal or slightly inferior to NEM”.
As to monochloroamide, the “stabilizing effect compared with NEM” value in series [1] (setting [6]) is reported as “equal or slightly inferior to NEM”.
In the case of dithioprydine, the “stabilizing effect compared with NEM” value in series [1] is given as “equal or slightly inferior to NEM”.
Consider `CCN1C(=O)C=CC1=O` [N-ethylmaleimide], for which the clotting time entry in series [3] is given as “not varied”. The Precipitation result in series [2] (substance 1 mM) was “−”. In the series on factor XIII (setting [7]), the “Inhibiting for factor XIII” value was “+”. Moreover, the Insoluble precipitation entry is given as “±” in series [4] (0.1 mM, Bovine plasma 1, 24 hours at 10° C.); “+” in series [4] (0.1 mM, Bovine plasma 1, freeze-thawed at −20° C.); “±” in series [4] (0.1 mM, Bovine plasma 2, 24 hours at 10° C.); “+” in series [4] (0.1 mM, Bovine plasma 2, freeze-thawed at −20° C.); “−” in series [4] (1 mM, Bovine plasma 1, 24 hours at 10° C.); “−” in series [4] (1 mM, Bovine plasma 1, freeze-thawed at −20° C.). Also, the Insoluble precipitation entry is on record as “−” in series [4] (1 mM, Bovine plasma 2, 24 hours at 10° C.); “−” in series [4] (1 mM, Bovine plasma 2, freeze-thawed at −20° C.); “−” in series [4] (2 mM, Bovine plasma 1, 24 hours at 10° C.); “−” in series [4] (2 mM, Bovine plasma 1, freeze-thawed at −20° C.); “−” in series [4] (2 mM, Bovine plasma 2, 24 hours at 10° C.); “−” in series [4] (2 mM, Bovine plasma 2, freeze-thawed at −20° C.). In addition, the Insoluble precipitation result is “−” in series [4] (5 mM, Bovine plasma 1, 24 hours at 10° C.); “−” in series [4] (5 mM, Bovine plasma 1, freeze-thawed at −20° C.); “−” in series [4] (5 mM, Bovine plasma 2, 24 hours at 10° C.); “−” in series [4] (5 mM, Bovine plasma 2, freeze-thawed at −20° C.); “−” in series [4] (10 mM, Bovine plasma 1, 24 hours at 10° C.); “−” in series [4] (10 mM, Bovine plasma 1, freeze-thawed at −20° C.). For the same molecule, the Insoluble precipitation entry in series [4] (10 mM, Bovine plasma 2, 24 hours at 10° C.) is listed as “−”; in series [4] (10 mM, Bovine plasma 2, freeze-thawed at −20° C.), “−”; in series [5] (Adsorbed plasma 1, Storage after freeze-thawing at −20° C.) it was “−”; in series [5] (Adsorbed plasma 1, Storage at 10° C.), “−”; in series [5] (Adsorbed plasma 2, Storage after freeze-thawing at −20° C.), “−”; in series [5] (Adsorbed plasma 2, Storage at 10° C.), “−”. The Insoluble precipitation result in series [5] (Adsorbed plasma 3, Storage after freeze-thawing at −20° C.) was “−”; in series [5] (Adsorbed plasma 3, Storage at 10° C.) it was “−”.
Regarding `O=C(O)CI` [Monoiodo acetic acid], the Precipitation result in series [2] (substance 1 mM) is on record as “−”. The “Inhibiting for factor XIII” value in the series on factor XIII (setting [7]) is recorded as “+”.
Consider `OC[C@H]1O[C@@](CO)(O[C@H]2O[C@H](CO)[C@@H](O)[C@H](O)[C@H]2O)[C@@H](O)[C@@H]1O` [Sucrose], for which the Precipitation entry in series [2] (substance 5%) is given as “+”. Further, the “Inhibiting for factor XIII” value in the series on factor XIII (substance 5% in absorbed plasma + Hepes-Tris/calcium lactate) is “−”.
As to `CN(C)c1c([N+](=O)[O-])cc(N2C(=O)C=CC2=O)cc1[N+](=O)[O-]` [N-(4-dimethylamino-3,5-dinitrophenyl) maleimide], in series [2] (substance 1 mM), the Precipitation entry is on record as “−”. Moreover, the “Inhibiting for factor XIII” value in the series with factor XIII (setting [7]) is listed as “+”.
On to `[Cl-].[Na+]` [NaCl], for which the “Inhibiting for factor XIII” value in the series on factor XIII (substance 10 mM in absorbed plasma + Hepes-Tris/calcium lactate) is recorded as “−”.
